Reference: patent US8217035B2, “Pyrimidine derivatives used as PI-3-kinase inhibitors” (Novartis AG, priority 2006, dated 2012)

test system: pSer473 Akt in A2780 cells; experiment: pSer473 Akt assay to monitor PI3K pathway in A2780 cells (Biological Method 2, MSD); assay type: cell-based; conditions: Homo sapiens; inhibition of Akt phosphorylation, A2780 cells
In short: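 A2780 ovarian cancer cells in DMEM/10% FBS were treated with compound for 1 h at 37 °C, then lysed. pSer473-Akt and total Akt were measured by MSD electrochemiluminescence immunoassay. The pSer473/total Akt ratio gave % inhibition versus DMSO, from which EC50 was derived.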

Row | Structure (SMILES) | EC50
1 | Nc1ncc(-c2cc(O[C@H]3CCCN(C(=O)OC4CCCC4)C3)nc(N3CCOCC3)n2)c(N)n1 [Compound 186] | < 1000 nM
2 | CCOc1cc(Nc2cc(-c3cnc(N)cc3C(F)(F)F)nc(N3CCOCC3)n2)ccn1 [Compound 178] | < 1000 nM
3 | Nc1ncc(-c2cc(Nc3ccncc3C(F)(F)F)nc(N3CCOCC3)n2)c(C(F)(F)F)n1 [Compound 158] | < 1000 nM
4 | CCc1c(Nc2cnc3ccccc3c2)nc(N2CCOCC2)nc1-c1cnc(N)nc1 [Compound 98] | < 1000 nM
5 | Nc1ncc(-c2cc(-c3cnc(N)nc3C(F)(F)F)nc(N3CCOCC3)n2)c(C(F)(F)F)n1 [Compound 121] | < 1000 nM
6 | Cc1cc(Nc2cc(-c3cnc(N)nc3N)nc(N3CCOCC3)n2)ccn1 [Compound 53] | < 1000 nM
7 | CC(C)C(=O)N1CCC(Oc2cc(-c3cnc(N)nc3N)nc(N3CCOCC3)n2)CC1 [Compound 134] | < 1000 nM
8 | CS(=O)(=O)c1cccc(-c2cc(-c3cnc(N)nc3N)nc(N3CCOCC3)n2)c1 [Compound 125] | < 1000 nM
9 | Nc1ncc(-c2cc(Nc3ccc(N4CCNCC4)nc3)nc(N3CCOCC3)n2)cn1 [Compound 9] | < 1000 nM
10 | CC(=O)c1ccccc1Nc1cc(-c2ccc(N)nc2)nc(N2CCOCC2)n1 [Compound 172] | < 1000 nM
11 | COC(=O)N1CCC[C@H](Oc2cc(-c3cnc(N)nc3N)nc(N3CCOCC3)n2)C1 [Compound 75] | < 1000 nM
12 | Nc1cc(C(F)(F)F)c(-c2cc(N3CCOCC3Cc3ccccc3)nc(N3CCOCC3)n2)cn1 (stereo not drawn) [Compound 113] | < 1000 nM

test system: A2780 ovarian cancer cells; experiment: Cellular proliferation in A2780 cells, Cell Titer Glo (Biological Method 4); assay type: cell-based; conditions: Homo sapiens; ovarian cancer cell line A2780
In short: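 Viability after 72 h compound exposure (37 °C, 5% CO2) was read by Cell Titer Glo and an EC50 derived, each condition in duplicate. A2780 ovarian cells had been plated at 1,000 per well in DMEM/10% FBS at least 2 h beforehand.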

Row | Structure (SMILES) | EC50
13 | Nc1ncc(-c2cc(O[C@H]3CCCN(C(=O)OC4CCCC4)C3)nc(N3CCOCC3)n2)c(N)n1 [Compound 186] | < 10000 nM
14 | CCOc1cc(Nc2cc(-c3cnc(N)cc3C(F)(F)F)nc(N3CCOCC3)n2)ccn1 [Compound 178] | < 10000 nM
15 | Nc1ncc(-c2cc(Nc3ccncc3C(F)(F)F)nc(N3CCOCC3)n2)c(C(F)(F)F)n1 [Compound 158] | < 1000 nM
16 | CCc1c(Nc2cnc3ccccc3c2)nc(N2CCOCC2)nc1-c1cnc(N)nc1 [Compound 98] | < 1000 nM
17 | Nc1ncc(-c2cc(-c3cnc(N)nc3C(F)(F)F)nc(N3CCOCC3)n2)c(C(F)(F)F)n1 [Compound 121] | < 1000 nM
18 | Cc1cc(Nc2cc(-c3cnc(N)nc3N)nc(N3CCOCC3)n2)ccn1 [Compound 53] | < 1000 nM
19 | CC(C)C(=O)N1CCC(Oc2cc(-c3cnc(N)nc3N)nc(N3CCOCC3)n2)CC1 [Compound 134] | < 1000 nM
20 | CS(=O)(=O)c1cccc(-c2cc(-c3cnc(N)nc3N)nc(N3CCOCC3)n2)c1 [Compound 125] | < 1000 nM
21 | Nc1ncc(-c2cc(Nc3ccc(N4CCNCC4)nc3)nc(N3CCOCC3)n2)cn1 [Compound 9] | < 1000 nM
22 | CC(=O)c1ccccc1Nc1cc(-c2ccc(N)nc2)nc(N2CCOCC2)n1 [Compound 172] | < 10000 nM
23 | COC(=O)N1CCC[C@H](Oc2cc(-c3cnc(N)nc3N)nc(N3CCOCC3)n2)C1 [Compound 75] | < 10000 nM
24 | Nc1cc(C(F)(F)F)c(-c2cc(N3CCOCC3Cc3ccccc3)nc(N3CCOCC3)n2)cn1 (stereo not drawn) [Compound 113] | < 10000 nM

target: PI3 kinase alpha (Homo sapiens, UniProt P42336); experiment: PI3K ATP depletion assay (Biological Method 1, Assay 3; KinaseGlo luminescence); assay type: biochemical; conditions: ATP depletion assay; read-out: PI3 Kinase Alpha, IC50
Sequence (P42336 whole entry): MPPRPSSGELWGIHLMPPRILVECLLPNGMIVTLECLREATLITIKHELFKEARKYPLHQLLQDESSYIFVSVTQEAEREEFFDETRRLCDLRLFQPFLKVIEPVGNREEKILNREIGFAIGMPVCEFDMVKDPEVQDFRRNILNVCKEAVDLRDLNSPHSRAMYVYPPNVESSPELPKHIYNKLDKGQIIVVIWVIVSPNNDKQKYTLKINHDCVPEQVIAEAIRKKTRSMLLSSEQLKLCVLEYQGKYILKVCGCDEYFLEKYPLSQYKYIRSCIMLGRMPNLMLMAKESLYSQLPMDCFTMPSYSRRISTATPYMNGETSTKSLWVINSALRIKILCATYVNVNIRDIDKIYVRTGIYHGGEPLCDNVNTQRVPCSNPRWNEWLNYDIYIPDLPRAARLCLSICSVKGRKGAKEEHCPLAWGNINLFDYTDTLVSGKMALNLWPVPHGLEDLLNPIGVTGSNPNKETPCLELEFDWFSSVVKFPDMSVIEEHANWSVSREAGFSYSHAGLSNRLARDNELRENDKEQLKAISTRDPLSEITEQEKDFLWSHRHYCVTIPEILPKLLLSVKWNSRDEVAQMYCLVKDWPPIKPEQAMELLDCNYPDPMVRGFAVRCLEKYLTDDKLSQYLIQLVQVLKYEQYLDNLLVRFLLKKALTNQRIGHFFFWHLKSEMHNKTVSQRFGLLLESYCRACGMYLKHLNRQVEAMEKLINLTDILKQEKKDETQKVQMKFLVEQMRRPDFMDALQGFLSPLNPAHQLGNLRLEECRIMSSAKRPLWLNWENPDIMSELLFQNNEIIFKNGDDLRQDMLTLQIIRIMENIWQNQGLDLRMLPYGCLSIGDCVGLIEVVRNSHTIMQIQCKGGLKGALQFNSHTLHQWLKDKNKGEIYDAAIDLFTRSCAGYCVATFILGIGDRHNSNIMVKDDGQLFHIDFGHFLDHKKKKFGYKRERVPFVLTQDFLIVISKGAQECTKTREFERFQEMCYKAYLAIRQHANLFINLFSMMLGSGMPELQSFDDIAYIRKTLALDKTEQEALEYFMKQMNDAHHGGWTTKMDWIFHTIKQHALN
Sequence (P27986 whole entry partner): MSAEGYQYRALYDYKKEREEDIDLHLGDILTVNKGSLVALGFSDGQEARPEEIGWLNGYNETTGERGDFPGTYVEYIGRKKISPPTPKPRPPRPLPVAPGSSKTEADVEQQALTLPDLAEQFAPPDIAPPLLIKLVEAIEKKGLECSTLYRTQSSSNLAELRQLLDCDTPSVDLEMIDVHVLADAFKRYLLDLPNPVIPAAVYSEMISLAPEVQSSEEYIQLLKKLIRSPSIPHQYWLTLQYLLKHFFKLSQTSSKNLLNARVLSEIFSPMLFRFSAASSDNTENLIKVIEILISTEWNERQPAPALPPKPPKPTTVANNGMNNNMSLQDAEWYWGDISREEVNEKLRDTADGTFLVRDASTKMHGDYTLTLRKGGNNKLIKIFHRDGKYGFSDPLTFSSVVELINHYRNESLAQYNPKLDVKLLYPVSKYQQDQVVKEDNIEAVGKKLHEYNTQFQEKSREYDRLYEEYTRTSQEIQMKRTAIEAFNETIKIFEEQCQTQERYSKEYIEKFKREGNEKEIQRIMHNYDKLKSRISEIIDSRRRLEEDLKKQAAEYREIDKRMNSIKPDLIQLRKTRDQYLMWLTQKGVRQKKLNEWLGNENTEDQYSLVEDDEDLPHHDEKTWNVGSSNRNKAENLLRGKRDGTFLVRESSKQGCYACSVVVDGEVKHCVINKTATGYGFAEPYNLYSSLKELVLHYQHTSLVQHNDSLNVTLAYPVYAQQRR
In short: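 Compound in DMSO was mixed with 10 nM PI3 kinase and 5 μg/mL phosphatidylinositol, and the reaction was started with 2 μM ATP. It ran to about 50% ATP depletion and was stopped with KinaseGlo.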

Row | Structure (SMILES) | IC50
25 | Nc1ncc(-c2cc(O[C@H]3CCCN(C(=O)OC4CCCC4)C3)nc(N3CCOCC3)n2)c(N)n1 [Compound 186] | < 1000 nM
26 | CCOc1cc(Nc2cc(-c3cnc(N)cc3C(F)(F)F)nc(N3CCOCC3)n2)ccn1 [Compound 178] | < 1000 nM
27 | Nc1ncc(-c2cc(Nc3ccncc3C(F)(F)F)nc(N3CCOCC3)n2)c(C(F)(F)F)n1 [Compound 158] | < 1000 nM
28 | CCc1c(Nc2cnc3ccccc3c2)nc(N2CCOCC2)nc1-c1cnc(N)nc1 [Compound 98] | < 1000 nM
29 | Nc1ncc(-c2cc(-c3cnc(N)nc3C(F)(F)F)nc(N3CCOCC3)n2)c(C(F)(F)F)n1 [Compound 121] | < 1000 nM
30 | Cc1cc(Nc2cc(-c3cnc(N)nc3N)nc(N3CCOCC3)n2)ccn1 [Compound 53] | < 1000 nM
31 | CC(C)C(=O)N1CCC(Oc2cc(-c3cnc(N)nc3N)nc(N3CCOCC3)n2)CC1 [Compound 134] | < 1000 nM
32 | CS(=O)(=O)c1cccc(-c2cc(-c3cnc(N)nc3N)nc(N3CCOCC3)n2)c1 [Compound 125] | < 1000 nM
33 | Nc1ncc(-c2cc(Nc3ccc(N4CCNCC4)nc3)nc(N3CCOCC3)n2)cn1 [Compound 9] | < 1000 nM
34 | CC(=O)c1ccccc1Nc1cc(-c2ccc(N)nc2)nc(N2CCOCC2)n1 [Compound 172] | < 1000 nM
35 | COC(=O)N1CCC[C@H](Oc2cc(-c3cnc(N)nc3N)nc(N3CCOCC3)n2)C1 [Compound 75] | < 1000 nM
36 | Nc1cc(C(F)(F)F)c(-c2cc(N3CCOCC3Cc3ccccc3)nc(N3CCOCC3)n2)cn1 (stereo not drawn) [Compound 113] | < 1000 nM
